Where two headings read alike, the source gives them in different places.
Key:
Assay type in all cases: cell-based
[1] = target: protein kinases (human kinome) (Homo sapiens, UniProt O75460); settings: experiment wp076
[2] = target: protein kinases (human kinome) (Homo sapiens, UniProt P51956); settings: experiment wp146
[3] = target: protein kinases (human kinome) (Homo sapiens, UniProt O00418); settings: experiment wp137
[4] = target: protein kinases (human kinome) (Homo sapiens, UniProt P17948); settings: experiment wp131
protein kinases (human kinome) (Homo sapiens, UniProt P17948), sequence (P17948 27-1338): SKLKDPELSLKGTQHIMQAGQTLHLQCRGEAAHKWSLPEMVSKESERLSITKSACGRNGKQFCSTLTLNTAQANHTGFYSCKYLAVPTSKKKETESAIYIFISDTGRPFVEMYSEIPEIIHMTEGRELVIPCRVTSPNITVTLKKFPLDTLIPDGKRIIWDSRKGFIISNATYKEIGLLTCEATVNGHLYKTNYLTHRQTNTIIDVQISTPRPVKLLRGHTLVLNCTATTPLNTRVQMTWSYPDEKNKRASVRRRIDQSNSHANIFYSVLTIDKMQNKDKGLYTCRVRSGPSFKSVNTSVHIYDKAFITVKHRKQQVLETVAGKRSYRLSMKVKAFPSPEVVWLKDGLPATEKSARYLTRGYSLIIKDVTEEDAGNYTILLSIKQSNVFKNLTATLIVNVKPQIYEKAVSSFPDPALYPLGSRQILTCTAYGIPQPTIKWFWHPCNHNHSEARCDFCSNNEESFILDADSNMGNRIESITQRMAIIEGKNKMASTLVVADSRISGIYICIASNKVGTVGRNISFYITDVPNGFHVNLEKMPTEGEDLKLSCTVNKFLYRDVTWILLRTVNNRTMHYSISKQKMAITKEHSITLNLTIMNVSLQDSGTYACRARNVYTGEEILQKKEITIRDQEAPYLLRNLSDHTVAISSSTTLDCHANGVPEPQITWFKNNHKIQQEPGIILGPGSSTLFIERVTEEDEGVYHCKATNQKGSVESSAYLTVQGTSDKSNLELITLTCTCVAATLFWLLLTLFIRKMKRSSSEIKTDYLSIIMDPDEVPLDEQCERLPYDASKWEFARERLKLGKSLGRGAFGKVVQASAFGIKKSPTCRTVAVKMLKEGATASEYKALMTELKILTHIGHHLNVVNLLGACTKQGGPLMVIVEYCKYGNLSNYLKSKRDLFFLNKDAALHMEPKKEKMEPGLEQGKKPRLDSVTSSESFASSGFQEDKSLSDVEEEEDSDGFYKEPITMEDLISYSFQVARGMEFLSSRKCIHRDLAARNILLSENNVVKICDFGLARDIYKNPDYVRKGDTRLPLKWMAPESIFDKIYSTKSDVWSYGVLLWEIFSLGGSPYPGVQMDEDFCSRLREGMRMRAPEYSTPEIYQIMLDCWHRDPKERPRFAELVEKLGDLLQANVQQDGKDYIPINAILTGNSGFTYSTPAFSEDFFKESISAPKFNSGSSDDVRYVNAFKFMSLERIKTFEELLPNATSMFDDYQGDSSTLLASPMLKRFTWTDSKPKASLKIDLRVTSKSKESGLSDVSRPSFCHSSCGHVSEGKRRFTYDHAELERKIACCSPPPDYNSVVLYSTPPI

[5] = target: protein kinases (human kinome) (Homo sapiens, UniProt Q8TF76); settings: experiment wp137
[6] = target: T1, protein kinases (human kinome) (Homo sapiens, UniProt Q9H2K8); settings: for logFC: TAOK3 (Q9H2K8); for logFC TAOK3 (Q9H2K8): direction of change down
T1 sequence (Q9H2K8 1-898): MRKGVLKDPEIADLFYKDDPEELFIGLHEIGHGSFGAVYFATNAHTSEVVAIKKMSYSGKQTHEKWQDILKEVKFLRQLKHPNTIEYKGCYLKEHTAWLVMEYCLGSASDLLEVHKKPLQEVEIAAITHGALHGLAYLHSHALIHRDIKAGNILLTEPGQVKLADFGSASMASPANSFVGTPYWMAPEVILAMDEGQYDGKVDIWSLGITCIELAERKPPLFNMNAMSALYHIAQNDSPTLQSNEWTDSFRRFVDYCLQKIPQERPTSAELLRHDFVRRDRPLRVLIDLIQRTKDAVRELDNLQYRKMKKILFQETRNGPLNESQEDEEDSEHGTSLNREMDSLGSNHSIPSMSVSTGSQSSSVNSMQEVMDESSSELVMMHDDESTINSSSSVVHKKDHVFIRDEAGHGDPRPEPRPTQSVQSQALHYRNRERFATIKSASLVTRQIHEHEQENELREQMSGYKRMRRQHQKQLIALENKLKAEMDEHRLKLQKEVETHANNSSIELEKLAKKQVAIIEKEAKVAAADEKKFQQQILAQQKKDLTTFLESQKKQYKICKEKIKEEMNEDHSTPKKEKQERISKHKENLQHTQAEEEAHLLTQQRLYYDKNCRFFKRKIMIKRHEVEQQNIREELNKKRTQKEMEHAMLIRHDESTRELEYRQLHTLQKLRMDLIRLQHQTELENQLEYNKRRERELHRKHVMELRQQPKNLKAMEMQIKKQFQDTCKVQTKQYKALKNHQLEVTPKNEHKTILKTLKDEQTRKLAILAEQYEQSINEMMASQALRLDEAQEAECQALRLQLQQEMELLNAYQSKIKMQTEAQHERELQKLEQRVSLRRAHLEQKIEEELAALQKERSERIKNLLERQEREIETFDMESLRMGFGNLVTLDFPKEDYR

[7] = target: protein kinases (human kinome) (Homo sapiens, UniProt P50750)
protein kinases (human kinome) (Homo sapiens, UniProt P50750), sequence (P50750 whole entry): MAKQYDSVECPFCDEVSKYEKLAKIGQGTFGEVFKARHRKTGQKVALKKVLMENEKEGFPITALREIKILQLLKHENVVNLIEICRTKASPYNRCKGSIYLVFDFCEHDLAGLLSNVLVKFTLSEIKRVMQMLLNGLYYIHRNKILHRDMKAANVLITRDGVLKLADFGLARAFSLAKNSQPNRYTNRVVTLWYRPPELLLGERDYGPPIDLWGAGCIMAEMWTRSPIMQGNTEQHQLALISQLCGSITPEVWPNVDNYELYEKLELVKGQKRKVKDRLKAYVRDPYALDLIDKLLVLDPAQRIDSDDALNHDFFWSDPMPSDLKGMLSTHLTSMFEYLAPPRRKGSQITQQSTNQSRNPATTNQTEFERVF

[8] = target: protein kinases (human kinome) (Homo sapiens, UniProt Q86UX6)
protein kinases (human kinome) (Homo sapiens, UniProt Q86UX6), sequence (Q86UX6 whole entry): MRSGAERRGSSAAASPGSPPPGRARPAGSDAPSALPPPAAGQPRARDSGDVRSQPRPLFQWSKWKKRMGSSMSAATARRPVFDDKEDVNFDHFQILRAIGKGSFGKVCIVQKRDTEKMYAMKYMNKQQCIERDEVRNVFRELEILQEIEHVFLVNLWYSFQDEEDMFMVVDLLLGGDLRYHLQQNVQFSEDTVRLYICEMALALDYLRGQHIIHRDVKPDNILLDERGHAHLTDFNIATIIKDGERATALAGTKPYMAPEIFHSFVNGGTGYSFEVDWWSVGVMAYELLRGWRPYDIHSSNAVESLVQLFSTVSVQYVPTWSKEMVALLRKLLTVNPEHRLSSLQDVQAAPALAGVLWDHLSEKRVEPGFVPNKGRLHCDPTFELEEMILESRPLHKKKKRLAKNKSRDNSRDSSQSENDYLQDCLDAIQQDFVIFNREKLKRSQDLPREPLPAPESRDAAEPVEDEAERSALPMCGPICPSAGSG

[9] = target: protein kinases (human kinome) (Homo sapiens, UniProt Q86Z02); settings: experiment wp133, 4 hr
[10] = target: protein kinases (human kinome) (Homo sapiens, UniProt Q96DU7); settings: protein ITPKC (Q96DU7); experiment wp133, 4 hr; down
protein kinases (human kinome) (Homo sapiens, UniProt Q96DU7), sequence (Q96DU7 whole entry): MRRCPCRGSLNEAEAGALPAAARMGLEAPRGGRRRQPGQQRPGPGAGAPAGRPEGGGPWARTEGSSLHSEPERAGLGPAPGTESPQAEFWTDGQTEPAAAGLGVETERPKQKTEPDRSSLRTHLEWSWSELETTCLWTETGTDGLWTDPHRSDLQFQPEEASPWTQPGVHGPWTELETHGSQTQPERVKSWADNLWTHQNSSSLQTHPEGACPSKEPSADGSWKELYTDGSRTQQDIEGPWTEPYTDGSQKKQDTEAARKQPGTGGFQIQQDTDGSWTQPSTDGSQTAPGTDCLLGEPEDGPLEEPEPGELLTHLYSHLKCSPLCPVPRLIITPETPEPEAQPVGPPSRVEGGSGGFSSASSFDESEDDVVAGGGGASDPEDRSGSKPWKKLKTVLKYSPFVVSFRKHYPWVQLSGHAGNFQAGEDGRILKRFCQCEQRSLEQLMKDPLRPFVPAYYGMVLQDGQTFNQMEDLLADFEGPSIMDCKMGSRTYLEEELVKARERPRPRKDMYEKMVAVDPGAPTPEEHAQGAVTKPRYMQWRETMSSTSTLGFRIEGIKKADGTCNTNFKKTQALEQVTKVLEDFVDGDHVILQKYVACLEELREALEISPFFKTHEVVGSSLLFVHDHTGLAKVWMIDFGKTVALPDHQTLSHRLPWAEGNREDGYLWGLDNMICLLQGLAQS

protein kinases (human kinome) (Homo sapiens, UniProt O75460), sequence (O75460 19-977): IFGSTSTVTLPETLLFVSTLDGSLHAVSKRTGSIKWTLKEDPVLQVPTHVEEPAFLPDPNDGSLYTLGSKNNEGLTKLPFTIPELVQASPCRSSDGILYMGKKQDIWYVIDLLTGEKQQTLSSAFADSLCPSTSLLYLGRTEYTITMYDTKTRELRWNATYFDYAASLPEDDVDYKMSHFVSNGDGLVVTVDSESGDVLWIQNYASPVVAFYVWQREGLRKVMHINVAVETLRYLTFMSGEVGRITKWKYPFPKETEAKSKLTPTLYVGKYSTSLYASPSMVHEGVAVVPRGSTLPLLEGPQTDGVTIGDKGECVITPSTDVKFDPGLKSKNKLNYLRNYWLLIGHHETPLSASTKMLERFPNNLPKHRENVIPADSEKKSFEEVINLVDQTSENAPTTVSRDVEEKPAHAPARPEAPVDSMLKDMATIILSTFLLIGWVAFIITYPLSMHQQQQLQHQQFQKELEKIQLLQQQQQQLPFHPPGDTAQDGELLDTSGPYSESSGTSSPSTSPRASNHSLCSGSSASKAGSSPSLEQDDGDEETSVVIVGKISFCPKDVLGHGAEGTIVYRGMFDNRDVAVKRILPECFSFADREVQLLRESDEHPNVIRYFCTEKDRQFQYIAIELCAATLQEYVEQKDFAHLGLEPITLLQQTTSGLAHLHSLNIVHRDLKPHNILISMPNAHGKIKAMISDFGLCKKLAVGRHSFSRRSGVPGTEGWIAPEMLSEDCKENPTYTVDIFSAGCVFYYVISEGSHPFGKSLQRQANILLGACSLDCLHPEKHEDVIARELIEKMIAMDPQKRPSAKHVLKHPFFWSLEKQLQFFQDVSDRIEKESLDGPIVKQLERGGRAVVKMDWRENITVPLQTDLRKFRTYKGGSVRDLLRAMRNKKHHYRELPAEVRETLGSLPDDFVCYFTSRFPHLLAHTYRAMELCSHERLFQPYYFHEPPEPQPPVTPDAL
protein kinases (human kinome) (Homo sapiens, UniProt O00418), sequence (O00418 whole entry): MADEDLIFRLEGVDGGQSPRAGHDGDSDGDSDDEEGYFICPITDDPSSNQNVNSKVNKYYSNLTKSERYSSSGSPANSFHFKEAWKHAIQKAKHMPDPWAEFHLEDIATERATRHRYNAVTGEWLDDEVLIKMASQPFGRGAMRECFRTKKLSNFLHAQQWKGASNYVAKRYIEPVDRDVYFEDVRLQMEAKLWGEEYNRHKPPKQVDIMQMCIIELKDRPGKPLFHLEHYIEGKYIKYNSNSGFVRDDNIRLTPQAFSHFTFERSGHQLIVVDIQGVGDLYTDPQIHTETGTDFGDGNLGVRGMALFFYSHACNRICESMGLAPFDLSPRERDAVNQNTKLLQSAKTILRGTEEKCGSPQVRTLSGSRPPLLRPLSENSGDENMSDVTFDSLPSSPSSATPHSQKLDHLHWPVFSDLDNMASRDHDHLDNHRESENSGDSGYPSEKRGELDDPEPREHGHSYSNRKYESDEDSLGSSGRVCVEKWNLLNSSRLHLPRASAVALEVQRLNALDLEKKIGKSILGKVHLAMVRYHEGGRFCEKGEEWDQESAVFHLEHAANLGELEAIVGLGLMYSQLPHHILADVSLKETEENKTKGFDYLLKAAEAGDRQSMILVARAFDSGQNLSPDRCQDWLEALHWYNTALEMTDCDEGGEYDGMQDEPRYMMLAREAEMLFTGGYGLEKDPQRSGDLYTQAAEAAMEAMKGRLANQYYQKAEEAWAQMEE
protein kinases (human kinome) (Homo sapiens, UniProt P51956), sequence (P51956 whole entry): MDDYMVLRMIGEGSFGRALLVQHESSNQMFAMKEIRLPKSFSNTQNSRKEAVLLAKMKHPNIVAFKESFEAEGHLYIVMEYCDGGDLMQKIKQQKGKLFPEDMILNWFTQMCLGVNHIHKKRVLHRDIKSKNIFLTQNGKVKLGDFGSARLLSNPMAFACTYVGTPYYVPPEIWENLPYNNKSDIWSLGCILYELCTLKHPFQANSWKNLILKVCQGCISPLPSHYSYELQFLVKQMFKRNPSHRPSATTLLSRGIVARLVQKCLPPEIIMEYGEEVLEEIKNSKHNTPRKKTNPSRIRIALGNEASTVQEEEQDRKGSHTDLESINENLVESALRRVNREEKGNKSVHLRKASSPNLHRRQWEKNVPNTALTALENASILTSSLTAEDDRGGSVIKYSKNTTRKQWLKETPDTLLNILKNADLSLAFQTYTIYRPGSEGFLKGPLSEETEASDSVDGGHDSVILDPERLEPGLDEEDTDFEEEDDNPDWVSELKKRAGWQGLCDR

SMILES: O=C1CCC(N2C(=O)c3cccc(NCCCCCCCCN4CCC(NC(=O)c5[nH]ncc5NC(=O)c5c(Cl)cccc5Cl)CC4)c3C2=O)C(=O)N1 (stereo not shown) [MFH.5.126.1]
- logFC of ERN1 (O75460) [1]: −0.4882
- logFC ERN1 ([1]; protein ERN1 (O75460), down): −0.4882

SMILES: Cc1cc(Nc2ncc(Br)c(Nc3cccc(F)c3C(N)=O)n2)ccc1S(=O)(=O)NCCOCCOCCOCCOCCNc1cccc2c1C(=O)N(C1CCC(=O)NC1=O)C2=O (stereo not shown) [TMX.02.174]
- logFC NEK3 (P51956) ([2]; direction of change down): −0.8497
- logFC NEK3 ([2]; protein NEK3 (P51956), down): −0.8497

SMILES: CC(C)S(=O)(=O)c1ccccc1Nc1nc(Nc2ccc(N3CCN(CCOCCOCCNC(=O)CNc4cccc5c4C(=O)N(C4CCC(=O)NC4=O)C5=O)CC3)cc2)ncc1Cl (stereo not shown) [TL12.186]
- logFC EEF2K (O00418) ([3]; direction of change down): −0.3443
- logFC EEF2K ([3]; protein EEF2K (O00418), down): −0.3443
- logFC FLT1 (P17948-1) ([4]; direction of change down): −0.699
- logFC FLT1 ([4]; protein FLT1 (P17948-1), down): −0.699
- logFC HASPIN (Q8TF76-1) ([5]; direction of change down): −0.368
- logFC HASPIN ([5]; protein HASPIN (QSTF76-1), down): −0.368

SMILES: Cc1ccc(C(=O)Nc2ccc(CN3CCN(CCCOCCOCCOCCNC(=O)COc4cccc5c4C(=O)N(C4CCC(=O)NC4=O)C5=O)CC3)c(C(F)(F)F)c2)cc1C#Cc1cnc2cccnn12 (stereo not shown) [SB1.G.187]
- logFC ([6]; experiment wp103): −0.3727
- logFC ([6]; experiment wp107): −0.3858
- logFC TAOK3 (Q9H2K8) ([6]; experiment wp103): −0.3727
- logFC TAOK3 (Q9H2K8) ([6]; experiment wp107): −0.3858

SMILES: CC(C)S(=O)(=O)c1ccccc1Nc1nc(Nc2ccc(N3CCN(CCOCCNC(=O)CNc4cccc5c4C(=O)N(C4CCC(=O)NC4=O)C5=O)CC3)cc2)ncc1Cl (stereo not shown) [SK.3.91]
- logFC CDK9 (P50750) ([7]; Experiment wp160, 2 hr): −0.404
- logFC of CDK9 (P50750) ([7]; Experiment wp160, 2 hr): −0.404
- logFC CDK9 (P50750) ([7]; Experiment wp172): −1.423
- logFC of CDK9 (P50750) ([7]; Experiment wp172): −1.423
- logFC CDK9 (P50750) ([7]; experiment wp160, 4 hr): −1.068
- logFC of CDK9 (P50750) ([7]; experiment wp160, 4 hr): −1.068
- logFC STK32C (Q86UX6) ([8]; Experiment wp114, direction of change down): −0.6189
- logFC STK32C ([8]; protein STK32C (Q86UX6), experiment wp114, down): −0.6189
- logFC HIPK1 (Q86Z02) ([9]; direction of change down): −0.4009
- logFC HIPK1 ([9]; protein HIPK1 (Q86Z02), down): −0.4009
- logFC ITPKC [10]: −0.3556

Source: patent publication US20240269139A1, “COMPOUNDS FOR TARGETED PROTEIN DEGRADATION OF KINASES” (DANA-FARBER CANCER INSTITUTE, INC., priority 2020, published 2024)
